Values after ≈ are worked out from the molar mass of the structure shown. Active and inactive are the calls of the source. The calls are words filed in the database; no cut-off is given here.
Columns and labels:
[1] = system: HL-60; test: Anti proliferative activity against human HL60 assessed as cell viability at 12.5 to 25 uM after 48 hrs by MTT assay; assay type: functional, cell-based
[2] = system: SAOS-2; test: Anti proliferative activity against human Saos2 assessed as cell viability at 12.5 to 25 uM after 48 hrs by MTT assay; assay type: functional, cell-based
[3] = Aqueous solubility of the compound in dimethyl sulfoxide; assay type: physicochemical; settings: aqueous solution with dimethyl sulfoxide
[4] = Lipophilicity, log P of the compound; assay type: physicochemical; settings: octanol/water
[5] = Solubility of the compound in 30 % hydroxypropyl-beta-cyclodextrins solution; assay type: physicochemical; settings: 30% hydroxypropyl-beta-cyclodextrin solution
[6] = system: K562; test: Antiproliferative activity against human K562 cells after 3 days by ATP lite 1 step assay; assay type: functional, cell-based; settings: K562, 72 h
[7] = Antiproliferative activity against human KU812 cells after 3 days by ATP lite 1 step assay; assay type: functional, cell-based; settings: KU812, 72 h

SMILES	Activity [1]	Activity [2]	solubility [3]	logP [4]	solubility [5]	IC50 [6]	IC50 [7]
CC(O)COC[C@H]1O[C@@H]2O[C@H]3[C@H](O)[C@@H](O)[C@@H](O[C@H]4[C@H](O)[C@@H](O)[C@@H](O[C@H]5[C@H](O)[C@@H](O)[C@@H](O[C@H]6[C@H](O)[C@@H](O)[C@@H](O[C@H]7[C@H](O)[C@@H](O)[C@@H](O[C@H]8[C@H](O)[C@@H](O)[C@@H](O[C@H]1[C@H](O)[C@H]2O)O[C@@H]8COCC(C)O)O[C@@H]7COCC(C)O)O[C@@H]6COCC(C)O)O[C@@H]5COCC(C)O)O[C@@H]4COCC(C)O)O[C@@H]3COCC(C)O (some centres not stated)	inactive	inactive					
CSc1nc(NCCc2cccc(F)c2)c2cnn(CC(Cl)c3ccccc3)c2n1 (configuration not stated)			0.588 µM (≈ 0.26 µg/mL)	6.44	790 µM (≈ 349 µg/mL)		
CCCSc1nc(NCc2cccc(Cl)c2)c2cnn(CC(Cl)c3ccccc3)c2n1 (configuration not stated)			0.107 µM (≈ 0.0506 µg/mL)	7.4	910 µM (≈ 430 µg/mL)		
CSc1nc(NCCc2ccc(Cl)cc2)c2cnn(CC(Cl)c3ccccc3)c2n1 (configuration not stated)			0.158 µM (≈ 0.0724 µg/mL)	7.41	612 µM (≈ 281 µg/mL)		
CSc1nc(NCc2cccc(Cl)c2)c2cnn(CC(Cl)c3ccccc3)c2n1 (configuration not stated)			0.295 µM (≈ 0.131 µg/mL)	6.76	314 µM (≈ 140 µg/mL)	7.19 µM	24.1 µM
CSc1nc(NCc2ccccc2F)c2cnn(CC(Cl)c3ccccc3)c2n1 (configuration not stated)				5.88		6.11 µM	7.87 µM
CSc1nc(NCCc2ccccc2)c2cnn(CC(Cl)c3ccccc3)c2n1 (configuration not stated)			0.166 µM (≈ 0.0704 µg/mL)		947 µM (≈ 402 µg/mL)		
CSc1nc(NCc2ccccc2)c2cnn(CC(Cl)c3ccccc3)c2n1 (configuration not stated)			0.512 µM (≈ 0.21 µg/mL)	5.49	838 µM (≈ 344 µg/mL)		
CSc1nc(NCc2cccc(Br)c2)c2cnn(CC(Cl)c3ccccc3)c2n1 (configuration not stated)			0.141 µM (≈ 0.0689 µg/mL)	6.37	390 µM (≈ 191 µg/mL)		

Reference: ChEMBL document CHEMBL1629519, “2-Hydroxypropyl-β-cyclodextrin strongly improves water solubility and anti-proliferative activity of pyrazolo[3,4-d]pyrimidines Src-Abl dual inhibitors” (Eur J Med Chem, 2010)
